Results as given in patent EP4585588A1, “BENZIMIDAZOLE COMPOUND, AND PREPARATION METHOD THEREFOR AND USE THEREOF” (Suzhou Pharmavan Co., Ltd., priority 2022, dated 2024).

Assays:
[1] = system: Primary cardiomyocytes of suckling rats; experiment: Area measurement of cardiomyocytes after PE injury; assay type: cell-based; conditions: for Cell Area Hypertrophy Multiple (Mean±Standard Deviation) Compared with Control Wells: 48 h, 10 µM; for cardiomyocyte area compared with the PE group (result in words): 10 µM compound, PE 20 µM for 48 hours
Procedure: Primary cardiomyocytes of suckling rats were isolated and cultured and inoculated on a cell culture plate. A drug stock solution was taken and separately added to cell wells according to a certain dilution ratio, and a final concentration was 10 µM. After half hour of drug action, a phenylephrine (PE) stock solution was added, and a final concentration of PE was 20 µM. After 48 hours of PE action, cell samples were collected for real-time quantitative PCR assay or cell area measurement.
Separation and plating of cardiomyocytes of rats: a certain number of SPF suckling rats were taken and placed in a clean bench according to an actual requirement for the number of cells, thoracic cavities were opened by scissors, hearts were separated, and the hearts were cut into tissue fragments with sterilized surgical scissors; Collagenase Type II (manufacturer: Sigma, article No.: C2-28-100MG) was added to a D-HANKS balanced salt buffer to prepare a […] enzyme digestion solution, and the tissue fragments of hearts were continuously digested for three times in a 37 °C constant-temperature water bath box; about 2 mL of the enzyme digestion solution was added for the first time, a supernatant was discarded after digestion, centrifugation and precipitation of cardiomyocytes and tissue fragments, about 4 mL of the enzyme digestion solution was independently added for the second time and the third time to continue digestion, a supernatant was remained each time, DMEM containing 10% FBS with the same volume as the digestion solution in the supernatant was immediately added to neutralize digestive enzymes, the supernatants for the second time and the third time were combined and centrifuged, a supernatant was discarded, an appropriate amount of DMEM containing 10% FBS was added to resuspend the cardiomyocytes, the cardiomyocytes were inoculated in a 100 mm culture plate and subjected to differential adhesion in a constant-temperature cell incubator for 2 h, and a supernatant was taken for cell count.
Area measurement of cardiomyocytes of rats: a 24-well plate precoated with 1% gelatin was taken and plated at 1.0×10^3 cells/well, 500 µL of a 10% FBS+DMEM medium was contained in each well, and cells were cultured in a 37 °C constant-temperature cell incubator for 24 h; different compounds were independently prepared into a 100 mM mother liquor with DMSO and gradient diluted with a 10% FBS+DMEM medium to prepare a 10 µM final solution of the compound containing […]; the medium in the 24-well plate was discarded and replaced with a 500 µL/well medium containing a 10 µM compound, and three replicate wells and a negative control well were set for each compound; after 0.5 hours of drug action, PE (manufacturer: Meilun Biotechnology; article No.: MB1602) with a final concentration of 20 µM was added to each well, and no PE was added to the negative control wells; after 48 hours of PE action, at least five fields of view were randomly selected from each well under an inverted microscope (manufacturer: Nikon; model: Eclipse TS100), and the cell area data was calculated by Image J software; the area of the cells in the negative control wells was set to 1, the cell area hypertrophy multiples of the PE wells and each administration well were calculated separately, and statistical analysis was performed using the One-Way ANOVA method.
The cardiomyocyte area was directly measured and the differences between the groups were compared for verification. The cardiomyocytes were co-intervened with PE and drugs and placed under a microscope for direct observation, and images were taken. The cell area data was calculated using Image J software. […]

[2] = system: Models of Heart Failure due to Pressure Overload of Mice; experiment: Pharmacodynamic test in mouse models of heart failure due to pressure overload (thoracic aorta ligation); assay type: in vivo, C57BL/6 mice; conditions: after four weeks of administration (nine weeks of modeling); for Ejection Fraction (Mean) of Ventriculus Sinister of Heart: Table 5, model group 28.6%; for Ejection Fraction (Mean) of Ventriculus Sinister of Heart / Ejection Fraction (Mean) of Heart: 5 mg/kg intraperitoneal once a day for four consecutive weeks; for Ejection Fraction (Mean) of Heart: Table 6, model group 29.8%; for effect on the cardiac contractile function (result in words): 5 mg/kg intraperitoneal once a day
Procedure: 1.1 Animals healthy C57BL/6 mice
Modeling by thoracic aorta ligation surgery: preoperative echocardiography was performed to exclude mice with abnormal cardiac functions; for mice with normal cardiac functions, anesthesia was performed, and the mice were anesthetized and then transferred into a small animal operating table and fixed; an open airway was established via endotracheal intubation, and anesthesia was maintained; taking the second rib as the center, the skin was cut along the sternum toward the first and third ribs to expose the connection between the second rib and the sternum; the second rib was cut to expose the aorta thoracic segment; the aortic arch was freed, a thin thread was inserted underneath, a thin needle was placed in parallel to the aortic arch for co-ligation; after ligation, the thin needle was withdrawn to observe the condition of the mice, and the mice were sutured layer by layer after stabilization; the mice were placed on the thermal insulation pad to keep warm, and after waking up, the mice were put back into the cage for daily feeding according to the activity.
After five weeks of modeling, echocardiography was performed on the mice to determine the ejection fractions of the hearts of the mice. When the ejection fraction decreased by about 50%, the ejection fraction met the experimental requirements, and the administration experiment started. Animals were grouped randomly and administered according to the ultrasound data, the echocardiography was performed every two weeks until week 9 ended, and pathological section analysis was performed.
The results were expressed using mean±standard error, data analysis was performed using GraphPad Prism statistical software, and the comparison was analyzed using a t-test. P < 0.05 was determined that there was a difference with statistical significance, otherwise P was determined that there was no significant difference.

[3] = system: myosin heavy chain β (β-MHC); conditions: 48 h, 10 µM
Procedure: Separation and plating of cardiomyocytes of rats: a certain number of SPF suckling rats were taken and placed in a clean bench according to an actual requirement for the number of cells, thoracic cavities were opened by scissors, hearts were separated, and the hearts were cut into tissue fragments with sterilized surgical scissors; Collagenase Type II (manufacturer: Sigma, article No.: C2-28-100MG) was added to a D-HANKS balanced salt buffer to prepare a 5 µg/mL enzyme digestion solution, and the tissue fragments of hearts were continuously digested for three times in a 37 °C constant-temperature water bath box; about 2 mL of the enzyme digestion solution was added for the first time, a supernatant was discarded after digestion, centrifugation and precipitation of cardiomyocytes and tissue fragments, about 4 mL of the enzyme digestion solution was independently added for the second time and the third time to continue digestion, a supernatant was remained each time, DMEM containing 10% FBS with the same volume as the digestion solution in the supernatant was immediately added to neutralize digestive enzymes, the supernatants for the second time and the third time were combined and centrifuged, a supernatant was discarded, an appropriate amount of DMEM containing 10% FBS was added to resuspend the cardiomyocytes, the cardiomyocytes were inoculated in a 100 mm culture plate and subjected to differential adhesion in a constant-temperature cell incubator for 2 h, and a supernatant was taken for cell count.
A 24-well plate precoated with 1% gelatin was taken and plated at 1×10^5 cells/well, 500 µL of a 10% FBS+DMEM medium was contained in each well, and cells were cultured in a 37 °C constant-temperature cell incubator for 24 h. Different compounds were independently prepared into a 100 mM mother liquor with DMSO and gradient diluted with a 10% FBS+DMEM medium to prepare a 10 µM final solution of the compound containing 0.5% DMSO. The medium in the 24-well plate was discarded and replaced with a 500 µL/well medium containing a 10 µM compound, and three replicate wells and a negative control well were set for each compound. After 0.5 hours of drug action, PE (manufacturer: Meilun Biotechnology; article No.: MB1602) with a final concentration of 20 µM was added to each well, and no PE was added to the negative control wells; after 48 hours of PE action, sample detection was performed.
Expression levels of genes related to cardiomyocyte hypertrophy was analyzed via real-time quantitative PCR detection of mRNA level of atrial natriuretic peptide (ANP) and myosin heavy chain β (β-MHC). The steps include extraction of total RNA of cells, reverse transcription synthesis of cDNA and real-time quantitative PCR assay.
Based on real-time quantitative PCR detection of an mRNA level of ANP of cardiomyocytes, a drug with a potential of anti-cardiomyocyte hypertrophy was preliminarily screened and verified with an mRNA level of another hypertrophy gene β-MHC using a statistical method One-way ANOVA and statistical software GraphPad Prism.

Structure (SMILES)	Cell Area Hypertrophy Multiple (Mean±Standard Deviation) Compared with Control Wells [1]	Ejection Fraction (Mean) of Ventriculus Sinister of Heart [2] [%]	Mean (real-time quantitative PCR validation results of cardiomyocyte β-MHC) [3]	Ejection Fraction (Mean) of Heart [2] [%]	cardiomyocyte area compared with the PE group (result in words) [1]	effect on the cardiac contractile function (result in words) [2]
Cc1nc2cc(-c3cc(C(N)=O)ccc3O)ccc2[nH]1 [Formula I-4, 4-hydroxy-3-(2-methyl-1H-benzimidazol-5-yl)benzamide]	1.27±0.34	35.4	1.15	–	–	–
CCCc1cc(C#N)c(C(C)O)c(-c2ccc3[nH]cnc3c2)c1 (stereo not drawn) [Formula II-96, 2-(1-hydroxyethyl)-3-(1H-benzimidazol-5-yl)-5-propylbenzonitrile]	1.49±0.10	–	1.38	36.8	–	–
Cc1nc2cc(-c3cc(F)cc(C#N)c3O)ccc2[nH]1 [Formula I-3, 5-fluoro-2-hydroxy-3-(2-methyl-1H-benzimidazol-5-yl)benzonitrile]	1.07±0.15	37.8	1.24	–	–	–
Cc1nc2cc(-c3cc(F)ccc3O)ccc2[nH]1 [Formula I-1, 4-fluoro-2-(2-methyl-1H-benzimidazol-5-yl)phenol]	1.42±0.16	37.2	1.21	–	–	–
Cc1nc2cc(-c3cc(F)ccc3C(C)(C)O)ccc2[nH]1 [Formula II-1, 2-(4-fluoro-2-(2-methyl-1H-benzimidazol-5-yl)phenyl)propane-2-ol]	1.39±0.30	–	1.32	38.7	–	–
Cc1nc2cc(-c3cc(F)cc(C#N)c3C(C)(C)O)ccc2[nH]1 [Formula II-3, 5-fluoro-2-(2-hydroxypropan-2-yl)-3-(2-methyl-1H-benzimidazol-5-yl)benzonitrile]	1.28±0.10	–	1.28	40.1	–	–
Cc1nc2cc(-c3cc(C(=O)N(C)C)ccc3C(C)(C)O)ccc2[nH]1 [Formula II-7, 4-(2-hydroxypropan-2-yl)-N,N-dimethyl-3-(2-methyl-1H-benzimidazol-5-yl)benzamide]	1.14±0.14	–	1.15	39.6	–	–
CC(O)c1ccc(F)cc1-c1ccc2[nH]cnc2c1 (stereo not drawn) [Formula II-73, 1-(4-fluoro-2-(1H-benzimidazol-5-yl)phenyl)ethane-1-ol]	1.17±0.16	–	–	40.5	–	–
Cc1nc2cc(-c3cc(F)cc(F)c3O)ccc2[nH]1 [Formula I-2, 2,4-difluoro-6-(2-methyl-1H-benzimidazol-5-yl)phenol]	1.18±0.16	38.3	1.21	–	–	–
CCCc1cc(C#N)c(CO)c(-c2ccc3[nH]cnc3c2)c1 [Formula II-144, 2-(hydroxymethyl)-3-(1H-benzimidazol-5-yl)-5-propylbenzonitrile]	1.12±0.13	–	1.39	41.5	–	–
Oc1ccccc1-c1cc(F)c2[nH]cnc2c1 [Formula I-24-C, 2-(7-fluoro-1H-benzimidazol-5-yl)phenol, reference compound]	1.95±0.08	30.7	–	–	no apparent improvement effect	no apparent improvement effect
Cc1nc2cc(-c3cc(C(=O)O)ccc3O)ccc2[nH]1 [Formula I-48, 4-hydroxy-3-(2-methyl-1H-benzimidazol-5-yl)benzoic acid]	1.06±0.08	37.2	1.58	–	–	–
Cn1cnc2cc(-c3cc(F)ccc3O)ccc21 [Formula I-24-B, 4-fluoro-2-(1-methyl-1H-benzimidazol-5-yl)phenol, reference compound]	1.81±0.20	27.2	–	–	no apparent improvement effect	no apparent improvement effect
OCc1ccc(F)cc1-c1ccc2[nH]cnc2c1 [Formula II-121, (4-fluoro-2-(1H-benzimidazol-5-yl)phenyl)methanol]	1.48±0.09	–	1.25	42.2	–	–
CCCc1cc(C#N)c(C(C)(C)O)c(-c2ccc3nc[nH]c3c2)c1 [Formula II-48]	1.07±0.20	–	–	41.4	–	–
Cc1nc2cc(-c3cc(C(N)=O)cc(F)c3O)ccc2[nH]1 [Formula I-5, 3-fluoro-4-hydroxy-5-(2-methyl-1H-benzimidazol-5-yl)benzamide]	1.50±0.15	39.7	1.25	–	–	–
Cc1nc2cc(-c3cc(F)cc(F)c3C(C)(C)O)ccc2[nH]1 [Formula II-2, 2-(2,4-difluoro-6-(2-methyl-1H-benzimidazol-5-yl)phenyl)propane-2-ol]	1.33±0.11	–	1.42	37.3	–	–
